In PMC8406298, “Discovery of Fungus-Specific Targets and Inhibitors Using Chemical Phenotyping of Pathogenic Spore Germination” (mBio, 2021):

Assays:
[1] = tested on: Cryptococcus yeast (CHY3833 and CHY3836); experiment: Yeast replication secondary screen (OD600); type: cell-based, Cryptococcus neoformans serotype D (deneoformans); details: 10 μM, 12 h at 30°C
Method: (ii) Yeast replication. CHY3833 and CHY3836 were each grown in YPD liquid overnight at 30°C to saturation and then resuspended in 0.5× YPD at an OD600 of 0.005. Strains were aliquoted into 384-well plates with inhibitors and grown for 12 h at 30°C at […] before OD600 readings were taken. Compounds that caused a >10% decrease in growth were considered yeast growth inhibitors.

[2] = tested on: normal human dermal fibroblasts (NHDF) cells; experiment: Fibroblast cytotoxicity (CellTiter-Glo); type: cell-based; details: 10 µM
Method: PrimaPure normal human dermal fibroblasts (NHDF) cells (Genlatis PH10605A) were cultured and passaged in fibroblast growth medium (Genlatis PM116500) according to the manufacturer’s protocol. NHDF cells (1 × 10^3 per well) were plated in a 384-well plate in cell culture medium. The cells were incubated with each compound of interest at 10 μM concentration for 72 h at 37°C and 5% CO2. Following treatment, CellTiter-Glo (Promega) reagent was used to assay ATP-dependent luminescence and thus provide a measure of cell viability. […] For cytotoxicity dose-response curves (Fig. 4C and Fig. 5C), compounds were titrated from 80 μM to 0.5 μM in duplicates.

SMILES	Yeast Inhibition: % Inhibition [1] [%]	Cytotoxicity: Relative Cell Viability (% of Negative Control) [2]
S=C1SCN(Cc2ccccn2)CN1Cc1ccco1 [compound 3242906]	100.6	103.5 % of Negative Control
O=C1CC(c2ccccc2)[Se]C(c2ccccc2)C1 (stereo not drawn) [compound 3287596]	100.2	45.9 % of Negative Control
COC(=O)C1=C(N)OC2=C(C(=O)CCC2)C1c1ccc(OC)c(OC)c1 (stereo not drawn) [compound 3355288]	9.4	104.5 % of Negative Control
S=C(NCc1ccco1)SCc1cn2ccccc2n1 [compound 3377203]	66.6	86.3 % of Negative Control
CCCOC1(NS(=O)(=O)c2ccccc2)C(Cl)=C(Cl)C(=O)c2ccccc21 (stereo not drawn) [compound 3397555]	101.3	17.7 % of Negative Control
Cc1ccc2nc(Nc3ccncc3)nc(-c3ccccc3)c2c1 [compound 3516311]	20.1	72.7 % of Negative Control
Nc1cc(Cl)c([N+](=O)[O-])cc1OCc1ccccc1 [compound 3521356]	52.3	102.1 % of Negative Control
O=C(Nc1ccc2sccc2c1)c1ccc([N+](=O)[O-])s1 [compound 3629287]	97.9	19.4 % of Negative Control
CC(C)(C)c1c[se]c(=S)s1 [compound 3797566]	91.9	98.5 % of Negative Control
CCOC(=O)N1CCN(C(c2ccccn2)c2c(-c3ccccc3)n(O)c3ccccc23)CC1 (stereo not drawn) [compound 4081132]	101.5	84.9 % of Negative Control
CC(C)C(=O)Nc1nnc(SCc2cccc(F)c2)s1 [compound 4086498]	20.2	106.8 % of Negative Control
CCCCCCCNS(=O)(=O)c1ccc(OCC)cc1 [compound 4102712]	46.8	43.9 % of Negative Control
O=C(N=C1C(Cl)=C(Cl)C(=O)c2ccccc21)c1ccc(Cl)cc1 [compound 4111118]	100.7	7.1 % of Negative Control
O=C(Nc1cccc(C(F)(F)F)c1)C(Cl)C(=O)c1ccccc1 (stereo not drawn) [compound 4162926]	101.5	20.8 % of Negative Control
N#CC(C#N)=NNc1cccc(Br)c1 [compound 4199189]	101.2	31.1 % of Negative Control
c1ccc(-c2nc([P+](c3ccccc3)(c3ccccc3)c3ccccc3)c(N3CCCCCC3)o2)cc1 [compound 4345313]	101.2	28.8 % of Negative Control
CCSc1oc(-c2ccco2)nc1[P+](c1ccccc1)(c1ccccc1)c1ccccc1 [compound 4360162]	72.3	41.9 % of Negative Control
Cc1cc(C)c(S(=O)(=O)Nc2nc(C(F)(F)F)cs2)c(C)c1 [compound 4413055]	9.5	49.5 % of Negative Control
Nc1c(-c2ccccc2)sc2nc(-c3ccccc3)cc[n+]12 [compound 4458495]	87.8	52.5 % of Negative Control
CCC(OCC(O)CN1CCC(Cc2ccccc2)CC1)c1ccccc1 (stereo not drawn) [compound 4471873]	82.2	78.8 % of Negative Control
COC(=O)c1c(NC(=O)c2ccc(C(C)(C)C)cc2)sc2c1CCN(C(C)C)C2 [compound 4684724]	50.4	34.9 % of Negative Control
CN(Cc1ccccc1)C(=O)COc1ccc(Br)cc1 [compound 4690650]	25.9	66.8 % of Negative Control
Clc1ccc2nc(Nc3ccncc3)nc(-c3ccccc3)c2c1 [compound 4714160]	14.9	90.5 % of Negative Control
Cc1ccc2cc(CCC#N)c(Cl)nc2c1 [compound 4736829]	62.6	96.3 % of Negative Control

SMILES	Yeast Inhibition: % Inhibition [1] [%]	Cytotoxicity: Relative Cell Viability (% of Negative Control) [2]
O=[N+]([O-])CC(SCCO)c1ccc(O)cc1 (stereo not drawn) [compound 4737365]	99.2	25.2 % of Negative Control
C=C(C)Cn1c(C2CC(=O)N(c3ccccc3F)C2)nc2ccccc21 (stereo not drawn) [compound 4754109]	6.6	95.9 % of Negative Control
COc1cc(-c2c(C#N)c(N)nc3c2c(C)nn3-c2ccc(C)cc2)cc(OC)c1OC [compound 4893324]	-3.0	84.7 % of Negative Control
COc1cccc2cc(-c3csc(NN=C4CCN(C)CC4)n3)c(=O)oc12 [compound 4913014]	99.6	68.7 % of Negative Control
COc1ccc(/C=C/c2nc3ccccc3[nH]2)cc1 [compound 5769808]	70.2	14.4 % of Negative Control
C/C=C/c1ccc(OCCn2cnc3ccccc32)c(OC)c1 [compound 5769972]	79.1	97.3 % of Negative Control
CN(C)/C=C/c1cc(=S)c2ccccc2s1 [compound 5991625]	65.3	72.5 % of Negative Control
NC(=O)c1ccsc1NC(=O)/C=C/c1ccccc1 [compound 6104220]	51.7	50.8 % of Negative Control
C(=C\c1cccs1)/c1nnc(-c2cccs2)o1 [compound 6263817]	49.0	84.3 % of Negative Control
COc1ccc(Nc2nc3ccc(OC)cc3s2)cc1 [compound 7086348]	31.0	91.3 % of Negative Control
O=S(=O)(NCc1csc(-c2ccccc2)n1)c1cc(Cl)ccc1Cl [compound 7119035]	38.8	89.2 % of Negative Control
CC(=O)c1cccc(NC(=O)c2cc(Cl)sc2Cl)c1 [compound 7120750]	72.7	79.8 % of Negative Control
NC(=O)c1ccsc1NC(=O)c1ccc(Cl)cc1Cl [compound 7167022]	52.4	83.5 % of Negative Control
O=C(COc1coc(CN2CCc3ccccc32)cc1=O)OCc1ccccc1 [compound 7178481]	15.8	88.3 % of Negative Control
O=C(/C=C/c1cccc(F)c1)c1ccc[nH]1 [compound 7185492]	99.0	40.0 % of Negative Control
O=C(/C=C/c1cccc(F)c1)c1cccs1 [compound 7185494]	101.7	45.7 % of Negative Control
O=C(Nc1nc2c(Br)cccc2s1)C1CC1 [compound 7202929]	16.5	66.1 % of Negative Control
CCCC(=O)N1CCN(c2nc3c(C)c(Cl)ccc3s2)CC1 [compound 7294823]	31.5	104.9 % of Negative Control
CCCc1cc(C(=O)OC)c(N2C(=O)C=CC2=O)s1 [compound 7456205]	101.6	4.1 % of Negative Control
c1ccc(Cn2nnc3c(Sc4ncco4)ncnc32)cc1 [compound 7471335]	101.6	4.1 % of Negative Control
Cc1nc(-c2ccc(F)cc2)sc1CCNC(=O)c1ccc(Br)o1 [compound 7503016]	20.4	97.2 % of Negative Control
Cc1ccc(NS(=O)(=O)N2CCCCCC2)cc1Cl [compound 8720355]	45.8	71.9 % of Negative Control
CCc1ccccc1NC(=O)c1cc(C)oc1C [compound 8839503]	37.3	103.5 % of Negative Control
COc1ccc(CCNC(=O)c2c(O)nc3ccccn3c2=O)cc1OC [compound 16010290]	-0.7	103.5 % of Negative Control
